1 compound from US11311538B2, “Compositions and methods for targeting cancers” (YALE UNIVERSITY, priority 2018, dated 2022) can be followed below.

This assay concerns poly-ADP-ribose (PAR). The assay is described as follows: Western blot of PAR levels in xenograft tumors. The class given is in vivo, mouse. The note with it: 24 h post treatment (FIGS. 9A-9B). As for the experimental part:
Western Blot analyses. Western blot analysis of protein levels was conducted by loading 30 μg of whole cell lysate onto a 4-20% polyacrylamide gel. Total protein was transferred to a nitrocellulose membrane. After blocking with 5% milk, membranes were incubated with primary antibodies. Antibodies used were: Rabbit monoclonal anti-Fumarase (D9C5,Cell Signaling Technologies) 1:1000 in 5% BSA, mouse monoclonal anti-SDHB (21A11AE7, Abcam) 1:1000 in % 5 milk, mouse monoclonal anti-Vinculin (SPM227, Abcam) 1:1000 in 5% milk, rabbit polyclonal anti-Histone 3 Lysine 36 trimethyl (9050, Abcam) 1:500 in 5% BSA, anti-Histone 3 Lysine 9 trimethyl (D4W1U, Cell Signaling Technologies) 1:1000 in 5% BSA, mouse monoclonal anti-Beta Actin (60008, Protein Tech) 1:5000 5% milk, rabbit Polyclonal anti-Histone H3 (ab1791, Abcam 1:5000 5% BSA), rabbit Polyclonal anti-PAR (4336-BPC-100, Trevigen) 1:5000 5% BSA, mouse monoclonal anti-GAPDH (60004 Protein Tech) 1:5000 5% milk, mouse monoclonal anti-BRCA2 (ab1, Millipore, 1:1000 5% Milk), mouse monoclonal anti-BRCA1 (D-9, Santa Cruz, 1:200 5% milk), mouse monoclonal anti-RAD51(14B4 Novus bio, 1:1000 5% milk). Patient sample blots were reprobed. […] Doxycycline induced knockdown was monitored by western blot as well as by RFP fluorescence from the internal and dox-inducible reporter on the TRIPZ construct. […]

For `Cn1ncnc1[C@H]1c2n[nH]c(=O)c3cc(F)cc(c23)N[C@@H]1c1ccc(F)cc1` [BMN-673, BMN-673 (Talazoparib)], the “PAR levels by western blot, SDHB knockdown vs shCTRL tumors” value was “reduced to the same extent”.
